“Also recorded” adds a separate entry of the source. Like-named read-outs stand apart in the source and are kept apart here.
Assays:
[1] = biological target: T1, native DPP3 from blood cells (Homo sapiens, UniProt Q9NY33); assay: DPP3 inhibition curve (FIG. 7); assay type: biochemical; details: against 15 ng/ml DPP3
T1 construct: from tissue; host or cells: blood cells
T1 sequence (Q9NY33 1-737): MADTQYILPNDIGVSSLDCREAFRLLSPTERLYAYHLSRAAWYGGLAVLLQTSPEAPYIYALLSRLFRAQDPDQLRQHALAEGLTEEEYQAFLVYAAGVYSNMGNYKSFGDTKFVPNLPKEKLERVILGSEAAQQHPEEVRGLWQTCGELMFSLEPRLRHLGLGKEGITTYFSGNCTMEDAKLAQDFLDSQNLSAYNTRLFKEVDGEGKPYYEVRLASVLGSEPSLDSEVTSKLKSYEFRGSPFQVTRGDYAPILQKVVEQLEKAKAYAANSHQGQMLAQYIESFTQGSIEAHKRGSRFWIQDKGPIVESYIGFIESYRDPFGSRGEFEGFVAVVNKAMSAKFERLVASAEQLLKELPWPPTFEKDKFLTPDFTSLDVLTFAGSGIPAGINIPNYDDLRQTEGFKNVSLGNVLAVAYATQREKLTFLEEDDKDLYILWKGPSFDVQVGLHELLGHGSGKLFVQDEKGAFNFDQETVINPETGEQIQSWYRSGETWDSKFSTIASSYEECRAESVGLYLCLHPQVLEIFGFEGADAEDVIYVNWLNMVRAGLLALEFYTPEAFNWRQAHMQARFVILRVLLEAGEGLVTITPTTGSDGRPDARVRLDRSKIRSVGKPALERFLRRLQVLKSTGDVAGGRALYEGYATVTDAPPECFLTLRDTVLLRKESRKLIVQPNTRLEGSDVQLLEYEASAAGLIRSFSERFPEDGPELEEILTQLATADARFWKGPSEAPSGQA

[2] = test system: isoproterenol-induced heart failure mice; assay: Isoproterenol-induced heart failure in mice; assay type: in vivo, mouse; details: 10 mg/kg i.v.; within the first hour after administration
Procedure: Acute heart failure was induced in male mice at 3 months of age by two daily subcutaneous injections of 300 mg/kg of Isoproterenol, a non-selective β-adrenergic agonist (DL-Isoproterenol hydrochloride, Sigma Chemical Co) (ISO) for two days (Vergaro et al, 2016). The ISO dilution was performed in NaCl 0.9%. Isoproterenol-treated mice were randomly assigned to two groups (Table 10) and PBS or Procizumab (10 mg/kg) were injected intravenously after baseline echocardiography (Gao et al., 2011) and renal resistive index measurements (Lubas et al., 2014, Dewitte et al, 2012) were performed at day 3 (FIGS. 11 A and B). Cardiac function was assessed by echocardiography (Gao et al., 2011) and by the renal resistive index (Lubas et al., 2014, Dewitte et al, 2012) at 1 hour, 6 hours and 24 hours (FIGS. 11 A and B). The group of mice that was injected with vehicle (PBS) instead of isoproterenol was subjected to no further pharmacological treatment and served as the control group (Table 10).

[3] = biological target: T2, Recombinant GST-tagged hDPP3 (Homo sapiens, UniProt Q9NY33); assay: hDPP3 inhibition analysis (DPP3 activity assay, Arg-Arg-βNA); assay type: biochemical; details: 25 ng/ml GST-DPP3, 10 μg antibody
T2 construct: purchased USBio (United States Biological, Salem, MA, USA)
T2 sequence (Q9NY33 1-737): T1 sequence (Q9NY33 1-737)
Procedure: To analyze the capability of DPP3 inhibition by the different antibodies and antibody clones a DPP3 activity assay with known procedure (Jones et al., 1982) was performed. Recombinant GST-tagged hDPP3 was diluted in assay buffer (25 ng/ml GST-DPP3 in 50 mM Tris-HCl, pH7,5 and 100 μM ZnCl2) and 200 μl of this solution incubated with 10 μg of the respective antibody at room temperature. After 1 hour of pre-incubation, fluorogenic substrate Arg-Arg-βNA (20 μl, 2 mM) was added to the solution and the generation of free βNA over time was monitored using the Twinkle LB 970 microplate fluorometer (Berthold Technologies GmbH & Co. KG) at 37° C. Fluorescence of βNA is detected by exciting at 340 nm and measuring emission at 410 nm. Slopes (in RFU/min) of increasing fluorescence of the different samples are calculated. The slope of GST-hDPP3 with buffer control is appointed as 100% activity. The inhibitory ability of a possible capture-binder is defined as the decrease of GST-hDPP3 activity by incubation with said capture-binder in percent.

[4] = biological target: T2, Recombinant GST-tagged hDPP3; assay: hDPP3 binding assay (labelled antibody, immobilized antigen, RLU); details: immobilized GST-hDPP3 1 μg/well
Procedure: To analyze the capability of DPP3/immunization peptide binding by the different antibodies and antibody clones a binding assay was performed:
Solid phase: Recombinant GST-tagged hDPP3 (SEQ ID NO. 36) or a DPP3 peptide (immunization peptide, SEQ ID NO. 37) was immobilized onto a high binding microtiter plate surface (96-Well polystyrene microplates, Greiner Bio-One international AG, Austria, 1 μg/well in coupling buffer [50 mM Tris, 100 mM NaCl, pH7,8], 1 h at RT). After blocking with 5% bovine serum albumin, the microplates were vacuum dried.
Labelling procedure (tracer): 100 μg (100 μl) of the different antiDPP3 antibodies (detection antibody, 1 mg/ml in PBS, pH 7.4) were mixed with 10 μl acridinium NHS-ester (1 mg/ml in acetonitrile, InVent GmbH, Germany; EP 0 353 971) and incubated for 30 min at room temperature. […] The final concentration was approx. 5-7*10^6 relative light units (RLU) of labelled compound (approx. 20 ng labelled antibody) per 200 μl. acridinium ester chemiluminescence was measured by using a Centro LB 960 luminometer (Berthold Technologies GmbH & Co. KG).
hDPP3 binding assay: the plates were filled with 200 μl of labelled and diluted detection antibody (tracer) and incubated for 2-4 h at 2-8° C. […] Well-bound chemiluminescence was measured by using the Centro LB 960 luminometer (Berthold Technologies GmbH & Co. KG).

[5] = biological target: T3, DPP3 (Homo sapiens, UniProt Q9NY33); assay: Western Blot analysis of binding specificity in blood cell lysate; details: AK1967 as primary antibody
T3 construct: from tissue; host or cells: lysate of blood cells from human EDTA-blood
T3 sequence (Q9NY33 1-737): T1 sequence (Q9NY33 1-737)
Procedure: Blood cells from human EDTA-blood were washed (3× in PBS), diluted in PBS and lysed by repeated freeze-thaw-cycles. […] Dilutions of blood cell lysate (1:40, 1:80, 1:160 and 1:320) and of purified recombinant human His-DPP3 (31.25-500 ng/ml) were subjected to SDS-PAGE and Western Blot. The blots were incubated in 1.) blocking buffer (1×PBS-T with 5% skim milk powder), 2.) primary antibody solution (AK1967 1:2.000 in blocking buffer) and 3.) HRP labelled secondary antibody (goat anti mouse IgG, 1:1.000 in blocking buffer). Bound secondary antibody was detected using the Amersham ECL Western Blotting Detection Reagent and the Amersham Imager 600 UV (both from GE Healthcare).

[6] = test system: Male Wistar rats; assay: CLP model of septic shock, sepsis-induced heart failure rats; assay type: in vivo, rat; details: vs CLP+PBS
Procedure: Male Wistar rats (2-3 months, 300 to 400 g, group size refers to table 9) from the Centre d'élevage Janvier (France) were allocated randomly to one of three groups. All the animals were anesthetized using ketamine hydrochloride (90 mg/kg) and xylazine (9 mg/kg) intraperitoneally (i.p.). For induction of polymicrobial sepsis, cecal ligation and puncture (CLP) was performed using Rittirsch's protocol with minor modification. A ventral midline incision (1.5 cm) was made to allow exteriorization of the cecum. The cecum is then ligated just below the ileocecal valve and punctured once with an 18-gauge needle. The abdominal cavity is then closed in two layers, followed by fluid resuscitation (3 ml/100 g body of weight of saline injected subcutaneously) and returning the animal to its cage. Sham animals were subjected to surgery, without getting their cecum punctured. CLP animals were randomized between placebo and therapeutic antibody.
The study flow is depicted in FIG. 8. After CLP or sham surgery the animals were allowed to rest for 20 hours with free access to water and food. […] As a safety measure, hemodynamics were monitored invasively and continuously from t=0 till 3 h. […]
Grey scale images were recorded at a depth of 2 cm. […] LVFS was calculated as LV end-diastolic diameter−LV end-systolic diameter/LV end-diastolic diameter and expressed in %. […] All parameters were measured manually. […]

[7] = test system: endotoxemic rats; details: pre-treatment; cited from earlier work
[8] = test system: patients with septic shock; assay: AdrenOSS-2 phase II trial in patients with septic shock and elevated adrenomedullin: mortality vs placebo; assay type: in vivo, human; details: for HR 28-day all-cause mortality: vs placebo
Procedure: AdrenOSS-2 is a double-blind, placebo-controlled, randomized, multicenter, proof of concept and dose-finding phase II clinical trial to investigate the safety, tolerability and efficacy of the N-terminal ADM antibody named Adrecizumab in patients with septic shock and elevated adrenomedullin (Geven et al. BMJ Open 2019; 9:e024475). In total, 301 patients with septic shock and bio-ADM concentration >[…] were randomized (2:1:1) to treatment with a single intravenous infusion over approximately 1 hour with either placebo (n=152), adrecizumab […]/kg (n=72) or adrecizumab […]/kg (n=77). All-cause mortality within 28 (90) days after inclusion was 25.8% (34.8%). Mean age was 68.4 years and 61% were male. For the per protocol analysis, n=294 patients remained eligible, and 14-day all-cause mortality rate was 18.5%.
To validate the findings from example 9 and for proof of concept, the different lower thresholds for DPP3 at baseline (day 1) were assessed for efficacy of the anti-ADM antibody (Adrecizumab) therapy in the septic shock population with high bio-ADM from the AdrenOSS-2 study cohort and patients with a DPP3 plasma value above the different lower thresholds were excluded from the analyses. Efficacy of the anti-ADM antibody therapy was specifically assessed to what concerns the mortality endpoint in the placebo and treated arms.
The DPP3 plasma levels in septic shock with high bio-ADM (above […]) patients (n=298) at baseline and in the following 144 h were statistically analysed with the aim of determining a DPP3 threshold at baseline to assess anti-ADM antibody therapy efficacy. Patients above the respective DPP3 plasma thresholds were excluded from the analyses. Different DPP3 plasma concentration thresholds have been applied for 28-day all-cause mortality evaluation using Kaplan-Meier plots comparing anti-ADM antibody therapy vs. placebo. The log-rank test was chosen for showing differences in mortality rates among treatment groups. Hazard ratios (HR) were calculated for each DPP3 plasma concentration threshold to estimate the reduction in mortality risk imposed by anti-ADM antibody therapy relative to placebo.

[9] = phase I study; cited from earlier work
[10] = test system: mice with CLP-induced sepsis; details: pre-treatment, cited from earlier work
[11] = test system: patients with septic shock; assay: AdrenOSS-2 phase II trial in patients with septic shock and elevated adrenomedullin: mortality vs placebo; assay type: in vivo, human

Substance: Clone 1967: anti-DPP3 monoclonal antibody, clone 1967 of SEQ ID No.: 37 (AK1967; Procizumab); humanized chains SEQ ID No. 47 and 48
- IC50 of DPP3 inhibition [1]: about 15 ng/ml
- heart function (shortening fraction) [2]: improved; also recorded: restores heart function
- Max. inhibition of hDPP3 [3]: 70%
- hDPP3 binding [RLU] [4]: 113.736 RLU
- binding specificity in lysate of blood cells [5]: no other unspecific binding takes place
- mortality rate [6]: drastically improves; also recorded: drastically reduces
- shortening fraction [6]: instant normalization; also recorded: drastically improves

Substance: Adrecizumab: humanized N-terminal anti-ADM antibody; heavy chain SEQ ID NO: 32, light chain SEQ ID NO: 33
- renal vascular leakage [7]: attenuated
- 28-day all-cause mortality compared to the placebo arm ([8]; DPP3 below 30 ng/ml (n=195)): significantly reduced
- 28-day all-cause mortality compared to the placebo arm ([8]; DPP3 below 50 ng/ml): lower than the placebo arm
- 28-day all-cause mortality compared to the placebo arm ([8]; DPP3 below 50 ng/ml at baseline and continuously low (<50 ng/ml) during the next 144 h): significantly lower
- HR 28-day all-cause mortality ([8]; baseline DPP3 threshold 22 ng/ml): 0.258
- HR 28-day all-cause mortality ([8]; baseline DPP3 threshold 30 ng/ml): 0.309
- HR 28-day all-cause mortality ([8]; baseline DPP3 threshold 40 ng/ml): 0.568
- serious adverse events [9]: no serious adverse events were observed
- 7-day survival ([10]; repeated dose administration, control 0%): 40%
- 7-day survival ([10]; single dose, control 10%): 50%
- renal vascular leakage [10]: attenuated
- HR 14-day mortality ([11]; DPP3 <50 ng/mL on admission): 0.426
- HR 14-day mortality ([11]; DPP3 <40): 0.385
- HR 14-day mortality ([11]; DPP3 <60): 0.449
- HR 14-day mortality ([11]; DPP3 <70): 0.546
- HR 14-day mortality ([11]; DPP3 >50 ng/mL): 1.69
- HR 14-day mortality ([11]; DPP3 >40): 1.35
- HR 14-day mortality ([11]; DPP3 >60): 1.62
- HR 14-day mortality ([11]; DPP3 >70): 1.24
- HR 28-day all-cause mortality ([11]; baseline DPP3 threshold 50 ng/ml): 0.606

— patent US20260028423A1, “PREDICTION OF AN INCREASE OF DPP3 IN A PATIENT WITH SEPTIC SHOCK” (4TEEN4 Pharmaceuticals GmbH, priority 2022, published 2026)
